Tests used:
MC38 tumor cells = assay: MC38 tumor model, subcutaneous, tumor growth, survival and flow cytometry of tumor infiltrating cells; format: in vivo, C57BI6/N mice
Procedure: FIG. 3: (A) Average tumor growth kinetics and overall survival monitored for the MC38 tumor model after treatment start. Treatment regimes are indicated by indeces 1 to 4 in the figure and represent: (1) 10 ml/kg vehicle+10 mg/kg mIgG1e ctrl. (2) 10 ml/kg vehicle+10 mg/kg α-muPD-1 (3) 25 mg/kg compound E9+10 mg/kg mIgG1e ctrl. and (4) 25 mg/kg compound E9+10 mg/kg α-mu-PD-1 (B) Tumor infiltrating cytotoxic T cells (CTL), CTL to regulatory T cell ratio, tumor associated M2-macrohages (M2-TAM) and M2-like TAM were analyzed by flow cytometry.
MC38 tumor cells were subcutaneously implanted in C57BI6/N mice, randomized at an average tumor volume of 100 mm^3 and tumor bearing mice were treated twice daily with 25 mg/kg compound E9 by oral gavage and twice weekly, intraperitoneal with 10 mg/kg anti-murine-PD-1 mAb (clone: RMP1-14) or corresponding controls.

KLN205 tumor cells = assay: KLN205 lung squamous cell carcinoma model, subcutaneous, tumor growth; format: in vivo, DBA/2 mice; conditions: compared to control, E9 25 mg/kg twice daily oral, anti-murine-PD-1 mAb 10 mg/kg twice weekly i.p.
Procedure: FIG. 4: (A) Average tumor growth kinetics and overall survival monitored for the EMT6 tumor model after treatment start. […] Treatment regimes are indicated by indeces 1 to 4 in the figure and represent: (1) 10 ml/kg vehicle+10 mg/kg mIgG1e ctrl. (2) 10 ml/kg vehicle+10 mg/kg α-mu-PD-1 (3) 12.5 mg/kg compound E9+10 mg/kg mIgG1e ctrl. and (4) 12.5 mg/kg compound E9+10 mg/kg α-mu-PD-1 (B) Average tumor growth kinetics for the KLN205 tumor model upon initiation of therapy; Treatment regimes are indicated by indeces 1 to 4 in the figure and represent: (1) 10 ml/kg vehicle+10 mg/kg mIgG1e ctrl. (2) 10 ml/kg vehicle+10 mg/kg α-mu-PD-1 (3) 25 mg/kg compound E9+10 mg/kg mIgG1e ctrl. And (4) 25 mg/kg compound E9+10 mg/kg α-mu-PD-1.
EMT6 tumor cells were implanted into mammary fat pad in BALB/c mice and randomized at an average tumor volume of 65mm^3. KLN205 tumor cells were subcutaneously implanted in DBA/2 mice and randomized at an average tumor volume of 60 mm^3. Both animal models were treated twice daily by oral gavage with the indicated doses of compound E9 and twice weekly, intraperitoneal with 10 mg/kg anti-murine-PD-1 mAb (clone: RMP1-14) or corresponding controls.

[1] = monotherapy, 25 mg/kg E9 twice daily by oral gavage

Q: Which results are given for `Cc1nc(Nc2ncc(C(=O)Nc3c(CF)csc3Cl)s2)cc(N2CCN(C)CC2)n1` [E9, N-(2-chloro-4-(fluoromethyl)thiophen-3-yl)-2-((2-methyl-6-(4-methylpiperazin-1-yl)pyrimidin-4-yl)amino)thiazole-5-carboxamide]?
A: CTL to Treg ratio (MC38 tumor cells; flow cytometry): promotion; cytotoxic T lymphocyte (CTL) activity (MC38 tumor cells; flow cytometry): activating; immunosuppressive myeloid cells in tumour microenvironment (MC38 tumor cells; flow cytometry): reducing; regulatory T cells (Treg) in tumour microenvironment (MC38 tumor cells; flow cytometry): reducing; anti-tumor efficacy (MC38 tumor cells; [1]): highly significant anti-tumor efficacy; survival (MC38 tumor cells; [1]): prolonged survival; Growth inhibition (TGI) (KLN205 tumor cells): 22%
